# Entries after “also recorded” stand apart in the source; their conditions may differ. Marks after values point to notes of the source that are not given here.
# How the values were obtained:
# [1] = test system: dopamine transporter knock-out mice; details: Wisor et al. 2001; cited from earlier work
# extracellular dopamine = details: Wisor et al., J. Neuroscience 2001; cited from earlier work
# [2] = test system: chronic post-TBI patients with motor deficits; assay: Open-label study: overall functional motor performance and reported adverse effects; assay type: in vivo, human; details: two patients
# Experimental: A clinical study was performed to evaluate the effect of modafinil on the functional outcome of the paretic arm of patients recovering from a brain injury.
# (§1) Two chronic post-TBI patients with motor deficits were treated for two consecutive weeks with modafinil (a single 200 mg/day dose, orally). Additionally, three hours after administration of the drug, these patients received one hour of occupational therapy in the morning and one hour of motor training at home in the afternoon. Primary outcomes were the pinch strength measured with a mechanic dynamometer, the number of blocks that the patient can pass in one minute in a box and block test, and the time required to complete a grooved pegboard test as described below.
# (§2) Patients were assessed at baseline, treated for two weeks, assessed at the end of the treatment, and assessed again 90 days after commencement of treatment.
# (§3) Patients were chronic post-traumatic brain injured individuals that were treated for two consecutive weeks with a 200 mg/day, single dose, of modafinil from Monday through Friday. Additionally, the patients received one hour of occupational therapy three hours after the oral intake of the drug and one hour of motor training at home. Primary outcomes were the pinch strength measured with a mechanic dynamometer, the number of blocks that the patient could pass in one minute in a box and block test, and the time required to complete a grooved pegboard at baseline. Primary outcomes were assessed at two weeks and 90 days from commencement of treatment.
# [3] = test system: chronic post-TBI patients with motor deficits; assay: Pinch strength (mechanic dynamometer), open-label modafinil study; assay type: in vivo, human
# Experimental: as §1
# The Pinch Force Dynamometer is a hand-held device capable of measuring instantaneous strength of the thumb and opposing finger or groupings of fingers as a function of time. The principle components are a pinch force transducer, instrumentation amplifier, and associated cables. Dynamic voltage representing instantaneous finger(s) pinch strength as a function of time is taken from the output of the instrumentation amplifier and sent to a laptop computer or to a data acquisition system for data manipulation, display, correlation with other data sources, and/or storage.
# as §2, §3
# [4] = test system: chronic post-TBI patients with motor deficits; assay: Box and Block Test of manual dexterity, open-label modafinil study; assay type: in vivo, human
# Experimental: as §1
# The “Box and Block Test” is a standardized test of manual dexterity, which provides a baseline for upper extremity manual dexterity and gross motor coordination. The test is quick and simple to administer and uses […] (1″) colored wooden blocks.
# as §2, §3
# [5] = test system: individuals who have sustained a brain injury; details: individuals with brain injury; L-dopa at high doses; co-filed international application; cited from earlier work
structure (smiles),measurement,setting,value
"NC(=O)C[S+]([O-])C(c1ccccc1)c1ccccc1 (stereo not drawn) [modafinil, 2-[(diphenylmethyl)sulfinyl]acetamide]",response to the action of modafinil,[1],unresponsive
same,extracellular dopamine,extracellular dopamine,increased extracellular dopamine
same,persistence of the improvements,[2]; 90 days after commencement of treatment,sustained at 90 days
same,adverse effect reported with the medication,"[2]; modafinil 200 mg/day orally, two weeks",Neither of the patients reported any adverse effect; also recorded: did not report any adverse effect
same,functional motor performance in the intact hand,[2]; two-week course of modafinil,slight improvement
same,functional motor performance in the paretic hands,[2]; two-week course of modafinil 200 mg/day orally,improved functional motor performance
same,Pinch Strength,"[3]; Patient 1, affected hand, 14 days, modafinil 200 mg/day orally for two weeks plus therapy, baseline 14.3",16.8 Pounds
same,Pinch Strength,"[3]; Patient 1, affected hand, 90 days from commencement, baseline 14.3",17.6 Pounds
same,Pinch Strength,"[3]; Patient 1, intact hand, 14 days, baseline 13.5",14.6 Pounds
same,Pinch Strength,"[3]; Patient 1, intact hand, 90 days, baseline 13.5",15 Pounds
same,Pinch Strength,"[3]; Patient 2, affected hand, 14 days, baseline 17",21.3 Pounds
same,Pinch Strength,"[3]; Patient 2, affected hand, 90 days, baseline 17",19.3 Pounds
same,Pinch Strength,"[3]; Patient 2, intact hand, 14 days, baseline 23",24 Pounds
same,Pinch Strength,"[3]; Patient 2, intact hand, 90 days, baseline 23",23.6 Pounds
same,Box and Block,"[4]; Patient 1, affected hand, 14 days, baseline 34",46 # blocks passed in 1 min
same,Box and Block,"[4]; Patient 1, affected hand, 90 days, baseline 34",46 # blocks passed in 1 min
same,Box and Block,"[4]; Patient 1, intact hand, 14 days, baseline 54",59 # blocks passed in 1 min
same,Box and Block,"[4]; Patient 1, intact hand, 90 days, baseline 54",55 # blocks passed in 1 min
same,Box and Block,"[4]; Patient 2, affected hand, 14 days, baseline 30",40 # blocks passed in 1 min
same,Box and Block,"[4]; Patient 2, affected hand, 90 days, baseline 30",40 # blocks passed in 1 min
same,Box and Block,"[4]; Patient 2, intact hand, 14 days, baseline 54 (table) / 62",65 # blocks passed in 1 min
same,Box and Block,"[4]; Patient 2, intact hand, 90 days, baseline 54 (table) / 62",76 # blocks passed in 1 min
CN1CCc2cccc3c2[C@H]1Cc1ccc(O)c(O)c1-3 [apomorphine],"treating impaired neurological function, including emergence from coma and other altered consciousness states",[5],particularly effective
N[C@@H](Cc1ccc(O)c(O)c1)C(=O)O [L-dopa],"treating impaired neurological function, including emergence from coma and other altered consciousness states",[5],particularly effective
